Among the test systems are HOP-92 NSCLC; LOX IMVI melanoma; HOP-62 NSCLC; SK-MEL-5 melanoma; HL-60(TB) leukemia; PC-3 prostate; SK-MEL-28 melanoma; RXF 393 renal; 786-0 renal; SF-539 CNS.
Common to all, as to experiment: DTP human tumour cell line panel, 48 h

“And” between values parts separate entries of the source, which are not always exact repeats. Identical values can stand only once.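 Protocol summary: plate cells (96-well), add compound at 5 concentrations, incubate 48 h, interpolate endpoints linearly. Here, GI50 denotes the concentration required for 50% inhibition of growth. TGI marks complete inhibition of growth.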 Where only a bound is given, the exact number is not on record here.

With `COc1cc(C(=O)c2ccc3c(c2)OCO3)cc(OC)c1OC`, the GI50 was 2.48 µM in the assay with HOP-92 NSCLC; 6.69 µM in the assay with LOX IMVI melanoma; 3.34 µM with HOP-62 NSCLC; 1.88 µM with SK-MEL-5 melanoma; 0.609 µM in the assay with HL-60(TB) leukemia; 4.12 µM in the assay with PC-3 prostate. Also, the GI50 was 3.69 µM with SK-MEL-28 melanoma, 2.88 µM in the assay on RXF 393 renal, 10.5 µM in the assay with 786-0 renal and 1.95 µM in the assay on SF-539 CNS. For the same molecule, the TGI in the assay on HOP-92 NSCLC is greater than 100 µM; in the assay on LOX IMVI melanoma it was greater than 100 µM; in the assay on HOP-62 NSCLC, greater than 100 µM; with SK-MEL-5 melanoma, greater than 21.5 µM; with HL-60(TB) leukemia, 9.02 µM; in the assay with PC-3 prostate it was greater than 100 µM. Also, the TGI was greater than 100 µM with SK-MEL-28 melanoma, 17.1 µM with RXF 393 renal, greater than 100 µM in the assay on 786-0 renal and 7.52 µM with SF-539 CNS.
Regarding `O=C(Nc1ccccc1O)c1cccc(NC2=C(Cl)C(=O)N(Cc3ccccc3)C2=O)c1`, the GI50 in the assay with HOP-92 NSCLC was 10.5 µM; in the assay with LOX IMVI melanoma, 1.62 µM; with HOP-62 NSCLC, 7.98 µM; in the assay on SK-MEL-5 melanoma, 6.66 µM; in the assay on HL-60(TB) leukemia, 1.5 µM; in the assay on PC-3 prostate, 13.7 µM. Moreover, the GI50 in the assay with SK-MEL-28 melanoma is 7.23 µM; in the assay on RXF 393 renal it was 1.89 µM; with 786-0 renal it was 2.3 µM; with SF-539 CNS, 10.7 µM. Moreover, the TGI came to 24.3 µM in the assay with HOP-92 NSCLC; 3.6 µM in the assay with LOX IMVI melanoma; 20.6 µM in the assay on HOP-62 NSCLC; 14.4 µM with SK-MEL-5 melanoma; 8.5 µM with HL-60(TB) leukemia; 26.6 µM in the assay with PC-3 prostate. The TGI in the assay with SK-MEL-28 melanoma is 20.5 µM; with RXF 393 renal, 5.28 µM; with 786-0 renal it was 6.78 µM; with SF-539 CNS it was 25.4 µM.
In the case of `Cn1cncc1[C@@](N)(c1ccc(Cl)cc1)c1ccc2c(c1)c(-c1cccc(Cl)c1)cc(=O)n2C`, the GI50 in the assay with HOP-92 NSCLC was 0.174 µM; in the assay with LOX IMVI melanoma, 1.34 µM; with HOP-62 NSCLC it was 5.51 µM; in the assay on SK-MEL-5 melanoma, 1.8 µM; in the assay with HL-60(TB) leukemia, 1.29 µM; in the assay with PC-3 prostate, 1.47 µM. In addition, the GI50 is 2.8 µM with SK-MEL-28 melanoma, 2.41 µM in the assay on RXF 393 renal, 3.08 µM with 786-0 renal and 2.81 µM in the assay on SF-539 CNS. Moreover, the TGI with HOP-92 NSCLC stood at 2.69 µM; with LOX IMVI melanoma it was 5.36 µM; in the assay on HOP-62 NSCLC, 18.4 µM; in the assay on SK-MEL-5 melanoma, 6.83 µM; in the assay on HL-60(TB) leukemia, 4.62 µM; with PC-3 prostate, 7.99 µM. Besides, the TGI in the assay with SK-MEL-28 melanoma came out at 14.7 µM; in the assay on RXF 393 renal it was 11.5 µM; in the assay on 786-0 renal, 14 µM; in the assay with SF-539 CNS, 9.47 µM.
Turning to `CC[C@H](C)[C@H]1NC(=O)[C@@H](N[C@](C)(O)[C@@H](N)CC(C)C)[C@@H](C)OC(=O)[C@H](Cc2ccc(OC)cc2)N(C)C(=O)[C@@H]2CCCN2C(=O)[C@H](CC(C)C)NC(=O)[C@@H](C)C(=O)[C@H](C(C)C)OC(=O)C[C@@H]1O`, the GI50 in the assay with HOP-92 NSCLC was 0.0262 µM; in the assay with LOX IMVI melanoma, 0.012 µM; with HOP-62 NSCLC, 0.0146 µM; in the assay with SK-MEL-5 melanoma, 0.018 µM; with HL-60(TB) leukemia, 0.0218 µM; in the assay with PC-3 prostate, 0.0164 µM. Moreover, the GI50 was 0.0117 µM in the assay with SK-MEL-28 melanoma, 0.019 µM in the assay on RXF 393 renal, 0.0225 µM in the assay on 786-0 renal and 0.0165 µM with SF-539 CNS. Further, the TGI in the assay with HOP-92 NSCLC amounted to 0.391 µM; in the assay with LOX IMVI melanoma, 0.209 µM; in the assay with HOP-62 NSCLC, 0.601 µM; in the assay with SK-MEL-5 melanoma it was 0.665 µM; in the assay on HL-60(TB) leukemia it was 0.281 µM; in the assay on PC-3 prostate, 0.208 µM. In addition, the concentration for total growth inhibition (TGI) with SK-MEL-28 melanoma was found to be 0.0954 µM; with RXF 393 renal, 0.173 µM; in the assay with 786-0 renal it was 2.94 µM; in the assay on SF-539 CNS, 0.185 µM.
For the molecule `COc1ccc(CCN2C(=O)C=CC2=O)cc1OC`, the TGI in the assay with HOP-92 NSCLC is 40.1 µM; in the assay on LOX IMVI melanoma, 36.9 µM; in the assay with HOP-62 NSCLC, 53.8 µM; in the assay with SK-MEL-5 melanoma it was 31.5 µM; in the assay with HL-60(TB) leukemia, 21.5 µM; in the assay on PC-3 prostate, 35.1 µM. Moreover, the TGI turned out to be 31.4 µM in the assay on SK-MEL-28 melanoma, 19.9 µM in the assay on RXF 393 renal, 8.15 µM with 786-0 renal and 31.3 µM in the assay with SF-539 CNS.
With `CCC(C)(C)C(=O)O[C@H]1C[C@@H](C)C=C2C=C[C@H](C)[C@H](CC[C@@H]3C[C@@H](O)CC(=O)O3)[C@H]21`, the GI50 in the assay with HOP-92 NSCLC was 0.0335 µM; in the assay with LOX IMVI melanoma, 0.39 µM; with HOP-62 NSCLC, 7.37 µM; with SK-MEL-5 melanoma it was 2.23 µM; in the assay with HL-60(TB) leukemia, 6.02 µM; in the assay with PC-3 prostate, 0.367 µM. The GI50 is 5.05 µM in the assay on SK-MEL-28 melanoma, 2.06 µM in the assay on RXF 393 renal, 3.13 µM with 786-0 renal and 11.3 µM with SF-539 CNS. For the same molecule, the TGI in the assay with LOX IMVI melanoma is 6.43 µM; with HOP-62 NSCLC it was 20.3 µM and > 30 µM; in the assay with SK-MEL-5 melanoma, 7.87 µM; with HL-60(TB) leukemia it was 20.8 µM and > 30 µM; in the assay with PC-3 prostate, 14.5 µM; with SK-MEL-28 melanoma, 18.8 µM and > 30 µM. Besides, the total growth inhibition concentration (TGI) in the assay with RXF 393 renal was 8.5 µM and 2.48 µM; in the assay with 786-0 renal, 11.2 µM and > 30 µM; in the assay on SF-539 CNS, 24.8 µM and > 30 µM.
Take `c1ccc(Cn2cc3c(c2-c2ccccc2)CCc2cnoc2-3)cc1`: the GI50 was 18 µM with HOP-92 NSCLC; 4.23 µM in the assay on LOX IMVI melanoma; 6.76 µM with HOP-62 NSCLC; 2.79 µM with SK-MEL-5 melanoma; 1.75 µM in the assay on HL-60(TB) leukemia; 6.13 µM with PC-3 prostate. Moreover, the GI50 in the assay on SK-MEL-28 melanoma was 6.58 µM; in the assay on RXF 393 renal, 4.94 µM; in the assay with 786-0 renal it was 6.7 µM; with SF-539 CNS, 5.34 µM. The TGI in the assay on HOP-92 NSCLC is greater than 100 µM; in the assay on LOX IMVI melanoma, greater than 100 µM; in the assay with HOP-62 NSCLC, greater than 100 µM; with SK-MEL-5 melanoma, 12.8 µM; in the assay with HL-60(TB) leukemia, 4.09 µM; with PC-3 prostate it was greater than 100 µM. Also, the TGI was greater than 100 µM with SK-MEL-28 melanoma, 61.2 µM in the assay on RXF 393 renal, 69.1 µM in the assay on 786-0 renal and 38.9 µM with SF-539 CNS.
In the case of `CCOc1cccc(/C=N/NC(=O)c2ccc(Nc3ccnc(C(F)(F)F)c3)cc2)c1O`, the GI50 with HOP-92 NSCLC was 1.01 µM; with LOX IMVI melanoma, 0.6 µM; in the assay with HOP-62 NSCLC, 2.23 µM; in the assay with SK-MEL-5 melanoma, 1.18 µM; in the assay with HL-60(TB) leukemia, 1.33 µM; in the assay on PC-3 prostate, 0.607 µM. For the same molecule, the GI50 is 1.63 µM in the assay with SK-MEL-28 melanoma, 2.97 µM with RXF 393 renal, 0.951 µM in the assay with 786-0 renal and 1.1 µM with SF-539 CNS. The TGI is greater than 64.2 µM in the assay with HOP-92 NSCLC; 24.5 µM in the assay with LOX IMVI melanoma; greater than 78.5 µM in the assay on HOP-62 NSCLC; 8.11 µM in the assay with SK-MEL-5 melanoma; 5.47 µM in the assay on HL-60(TB) leukemia; greater than 33.8 µM with PC-3 prostate. Moreover, the TGI in the assay with SK-MEL-28 melanoma was greater than 58.5 µM; with RXF 393 renal it was greater than 49.2 µM; in the assay on 786-0 renal, greater than 94.3 µM; with SF-539 CNS, 11.6 µM.
Consider `COc1cc(NS(C)(=O)=O)ccc1Nc1c2ccc(Cl)cc2nc2c(OC)cccc12`, for which the GI50 in the assay with HOP-92 NSCLC was 0.0765 µM; in the assay on LOX IMVI melanoma, 0.109 µM; in the assay on HOP-62 NSCLC, 0.0561 µM; with SK-MEL-5 melanoma it was 0.129 µM; with HL-60(TB) leukemia, 0.0313 µM; in the assay on PC-3 prostate it was 0.782 µM. Also, the GI50 in the assay with SK-MEL-28 melanoma is 1.96 µM; with RXF 393 renal, 0.411 µM; with 786-0 renal, 0.0526 µM; in the assay on SF-539 CNS, 0.059 µM. Besides, the TGI was found to be 2.48 µM with HOP-92 NSCLC; 1.44 µM in the assay with HOP-62 NSCLC; 3.97 µM in the assay with SK-MEL-5 melanoma; 1.3 µM in the assay with HL-60(TB) leukemia; 15.2 µM with PC-3 prostate; 18 µM in the assay on SK-MEL-28 melanoma. The TGI in the assay with RXF 393 renal was 3.04 µM; in the assay on 786-0 renal it was 0.689 µM; in the assay on SF-539 CNS, 0.681 µM.
On to `CC1=C(C(=O)Nc2ccc(F)c(Cl)c2)C(c2ccccc2Cl)NC(=S)N1` (stereo not drawn), for which the GI50 was greater than 50 µM in the assay with HOP-92 NSCLC; 15.1 µM in the assay on LOX IMVI melanoma; greater than 50 µM with HOP-62 NSCLC; 12.4 µM with SK-MEL-5 melanoma; 25.6 µM in the assay on HL-60(TB) leukemia; 20.2 µM with PC-3 prostate. Besides, the GI50 with SK-MEL-28 melanoma was greater than 50 µM; with RXF 393 renal it was 16.9 µM; in the assay with 786-0 renal, 30 µM; with SF-539 CNS it was greater than 50 µM. Moreover, the TGI in the assay on HOP-92 NSCLC, in the assay on LOX IMVI melanoma, in the assay with HOP-62 NSCLC, in the assay with SK-MEL-5 melanoma, in the assay with HL-60(TB) leukemia and in the assay on PC-3 prostate was greater than 50 µM in each case. In addition, the TGI is greater than 50 µM in the assay on SK-MEL-28 melanoma, 37.7 µM in the assay on RXF 393 renal, greater than 50 µM in the assay on 786-0 renal and greater than 50 µM with SF-539 CNS.
Turning to `O=[N+]([O-])c1ccc(Br)c([N+](=O)[O-])c1`, the GI50 in the assay with HOP-92 NSCLC is 1.94 µM; in the assay with LOX IMVI melanoma, 1.67 µM; in the assay on HOP-62 NSCLC, 1.78 µM; with SK-MEL-5 melanoma, 2.3 µM; with HL-60(TB) leukemia, 1.41 µM; in the assay with PC-3 prostate, 1.94 µM. Further, the GI50 was 1.89 µM with SK-MEL-28 melanoma, 1.83 µM with RXF 393 renal, 3.35 µM in the assay on 786-0 renal and 2.06 µM in the assay with SF-539 CNS. Moreover, the TGI in the assay with HOP-92 NSCLC turned out to be 4.02 µM; in the assay on LOX IMVI melanoma it was 3.38 µM; in the assay on HOP-62 NSCLC it was 3.24 µM; in the assay with SK-MEL-5 melanoma it was 5.64 µM; in the assay with HL-60(TB) leukemia, 3.54 µM; with PC-3 prostate it was 3.93 µM. Moreover, the TGI amounted to 3.64 µM in the assay on SK-MEL-28 melanoma, 3.36 µM in the assay on RXF 393 renal, 10.9 µM with 786-0 renal and 5.01 µM with SF-539 CNS.

Broadly, the GI50 is the concentration giving 50% growth inhibition. By TGI is commonly meant the concentration at which net growth stops. The low end stands for more potent growth arrest, the high end for less potent growth arrest.

Values taken from PubChem BioAssay (NCI).
